# Measurements as given in publication PMC3958311 (EMBO Molecular Medicine, 2014).
# Where two headings read alike, the source gives them in different places.
# Legend:
# zebrafish embryos = assay type: in vivo, zebrafish (Danio rerio)
# Method: On examination of infected zebrafish embryos treated with BTZ043 it was observed that the compound affected embryo development (Fig 6A–G) especially at concentrations above 25 nM. […] These defects were also observed when uninfected embryos were exposed to BTZ043.
# Figure 6 Effect of BTZ043 on M. marinum infected zebrafish embryo development. A–D M. marinum infected zebrafish embryos were treated with BTZ043 for 5 days at the concentrations indicated and photographed using a Leica DFC420C camera. The M strain was used for infection. E–F Images of the notochord from untreated and treated zebrafish, arrows indicate developmental abnormalities. G Analysis of zebrafish embryos displaying developmental abnormalities treated with BTZ043 (BTZ) or PBTZ169 (PBTZ) at the concentrations indicated.
# M. tuberculosis H37Rv [1] = assay type: in vivo, BALB/c mice
# [2] = mouse
# C. glutamicum ATCC 13032 = experiment: MIC99 by REMA; assay type: cell-based, Corynebacterium glutamicum; conditions: Corynebacterium glutamicum, ATCC13032; C. glutamicum ATCC 13032; read-out: MIC99
# in vitro [3] = conditions: human, microsomes
# in vitro [4] = conditions: mouse, microsomes
# M. smegmatis GM22 = experiment: microbe, parasite or virus in culture; assay type: cell-based; conditions: Mycolicibacterium smegmatis; for MIC99: M. smegmatis GM22, overproduces NfnB nitroreductase, read-out: MIC99
# M. marinum strain M [5] = assay type: in vivo, zebrafish (Danio rerio); conditions: 5 days treatment
# M. bolletii 1999-0888 = experiment: MIC99 by REMA; assay type: cell-based; conditions: Mycobacteroides abscessus, 19990888; M. bolletii 1999-0888; read-out: MIC99
# in vivo = experiment: in vivo
# Method: Table S5. Principal pharmacokinetic properties1
# 1 See Figure S5 for primary data.
# Compound levels were measured in serum from individual female mice (3/time point) that had received a single dose of 25 mg/kg. Maximum concentration (Cmax); area under the curve (AUC); apparent clearance.
# Comparative pharmacokinetic analysis. After receiving a single dose
# (25 mg/kg) of PBTZ169 or BTZ043 by gavage, groups of three female mice were sacrificed at the times indicated, blood was obtained by cardiac puncture and the drug levels in serum determined by LC-MS/MS technique (limit of quantification 10 μg/L).
# M. bovis BCG BN2 = assay type: cell-based, Mycobacterium bovis BCG
# M. marinum Strain M [6] = experiment: MIC99 by REMA; assay type: cell-based, Mycobacterium marinum; conditions: Mycobacterium marinum; M. marinum Strain M; read-out: MIC99
# M. abscessus 2005-0524 = experiment: MIC99 by REMA; assay type: cell-based; conditions: Mycobacteroides abscessus, 20050524; M. abscessus 2005-0524; read-out: MIC99
# M. smegmatis mc^2155 = experiment: MIC99 by REMA; assay type: cell-based, Mycobacterium smegmatis; conditions: Mycolicibacterium smegmatis; M. smegmatis mc^2155; read-out: MIC99
# M. tuberculosis MDR_CHUV = experiment: MIC99 by REMA; assay type: cell-based, Mycobacterium tuberculosis; conditions: Mycobacterium tuberculosis; read-out: MIC99
# M. tuberculosis H37Rv [7] = experiment: MIC by resazurin reduction microplate assay (REMA); assay type: cell-based, Mycobacterium tuberculosis; conditions: Mycobacterium tuberculosis; for MIC99: read-out: MIC99
# C. diphtheriae DSM 44123 = experiment: MIC99 by REMA; assay type: cell-based, Corynebacterium diphtheriae; conditions: Corynebacterium diphtheriae, DSM44123; C. diphtheriae DSM 44123; read-out: MIC99
# M. bovis BCG Pasteur = experiment: microbe, parasite or virus in culture; assay type: cell-based, Mycobacterium bovis BCG; conditions: Mycobacterium tuberculosis variant bovis BCG, BCG
# M. avium ATCC 15769 = experiment: MIC99 by REMA; assay type: cell-based; conditions: Mycobacterium avium, ATCC15769; M. avium ATCC 15769; read-out: MIC99
# [8] = human
# M. tuberculosis DprE1 = M. tuberculosis DprE1 (Mycobacterium tuberculosis, UniProt P9WJF1); experiment: DprE1 inhibition, two step peroxidase-coupled assay with Amplex Red; assay type: biochemical; conditions: 5 min incubation, 5 μM enzyme, 200 μM FPR
# M. tuberculosis DprE1, sequence (P9WJF1 whole entry, looked up): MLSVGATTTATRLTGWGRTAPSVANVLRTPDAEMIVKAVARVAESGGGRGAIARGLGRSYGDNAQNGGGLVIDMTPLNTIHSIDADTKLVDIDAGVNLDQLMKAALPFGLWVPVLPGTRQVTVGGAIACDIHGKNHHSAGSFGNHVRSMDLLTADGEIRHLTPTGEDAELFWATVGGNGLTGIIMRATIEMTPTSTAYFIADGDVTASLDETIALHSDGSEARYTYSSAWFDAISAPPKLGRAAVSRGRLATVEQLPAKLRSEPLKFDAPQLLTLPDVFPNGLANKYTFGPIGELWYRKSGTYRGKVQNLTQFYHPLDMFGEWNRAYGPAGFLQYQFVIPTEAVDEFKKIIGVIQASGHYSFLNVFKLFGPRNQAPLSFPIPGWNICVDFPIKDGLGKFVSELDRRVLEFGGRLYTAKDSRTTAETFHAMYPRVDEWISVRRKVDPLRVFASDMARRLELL
# M. massiliense 2005-0484 = experiment: MIC99 by REMA; assay type: cell-based; conditions: Mycobacteroides abscessus, 20050484; M. massiliense 2005-0484; read-out: MIC99
# [9] = molecular target: T1, purified recombinant M. smegmatis NfnB (Mycolicibacterium smegmatis, UniProt A0R6D0); experiment: NfnB-mediated nitroreduction followed by LC-MS; assay type: biochemical
# T1 construct: made in house
# T1 sequence (A0R6D0 whole entry): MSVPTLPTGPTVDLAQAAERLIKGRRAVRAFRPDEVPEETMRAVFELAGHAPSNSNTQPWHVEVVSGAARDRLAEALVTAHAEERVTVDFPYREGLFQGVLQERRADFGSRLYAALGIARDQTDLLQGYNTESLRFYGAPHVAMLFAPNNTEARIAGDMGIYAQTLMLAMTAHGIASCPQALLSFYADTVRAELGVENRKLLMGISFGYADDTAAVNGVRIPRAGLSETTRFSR
# M. vaccae ATCC 15483 = experiment: MIC99 by REMA; assay type: cell-based; conditions: Mycolicibacterium vaccae, ATCC15483; M. vaccae ATCC 15483; read-out: MIC99
# [10] = test system: M. tuberculosis clinical isolate 5055; experiment: Drug susceptibility testing on solid Löwenstein-Jensen medium; assay type: cell-based; conditions: Mycobacterium tuberculosis; […]; solid Löwenstein-Jensen medium; read-out: MIC
# [11] = test system: M. tuberculosis clinical isolate 6418; experiment: as above; assay type: cell-based; conditions: Mycobacterium tuberculosis; […]; solid Löwenstein-Jensen medium; read-out: MIC
# [12] = test system: M. tuberculosis clinical isolate 7384; experiment: as above; assay type: cell-based; conditions: Mycobacterium tuberculosis; […]; solid Löwenstein-Jensen medium; read-out: MIC
# [13] = test system: M. tuberculosis clinical isolate 4328; experiment: as above; assay type: cell-based; conditions: Mycobacterium tuberculosis; […]; solid Löwenstein-Jensen medium; read-out: MIC
# [14] = test system: M. tuberculosis clinical isolate 6341; experiment: as above; assay type: cell-based; conditions: Mycobacterium tuberculosis; […]; solid Löwenstein-Jensen medium; read-out: MIC
# [15] = test system: M. tuberculosis clinical isolate 6412; experiment: as above; assay type: cell-based; conditions: Mycobacterium tuberculosis; […]; solid Löwenstein-Jensen medium; read-out: MIC
# M. tuberculosis H37Rv [16] = experiment: as above; assay type: cell-based; conditions: Mycobacterium tuberculosis; H37Rv, Sensitive; solid Löwenstein-Jensen medium, 21-28 days; read-out: MIC
# [17] = test system: M. tuberculosis clinical isolate 5253; experiment: as above; assay type: cell-based; conditions: Mycobacterium tuberculosis; […]; solid Löwenstein-Jensen medium; read-out: MIC
# [18] = test system: M. tuberculosis clinical isolate 6448; experiment: as above; assay type: cell-based; conditions: Mycobacterium tuberculosis; […]; solid Löwenstein-Jensen medium; read-out: MIC
# [19] = test system: M. tuberculosis clinical isolate 6374; experiment: as above; assay type: cell-based; conditions: Mycobacterium tuberculosis; […]; solid Löwenstein-Jensen medium; read-out: MIC
# [20] = female, mouse, in vivo, po, 25 mg/kg
# [21] = Table 1, H37Rv, REMA, read-out: MIC M. tuberculosis
# [22] = Table S1, M. tuberculosis H37Rv, read-out: MIC
smiles,measurement,setting,value
"C[C@H]1COC2(CCN(c3nc(=O)c4cc(C(F)(F)F)cc([N+](=O)[O-])c4s3)CC2)O1 [BTZ043, 2-[(2S)-2-methyl-1,4-dioxa-8-azaspiro[4.5]dec-8-yl]-8-nitro-6-(trifluoromethyl)-4H-1,3-benzothia-zin-4-one]","embryos affected (notochord defects, shortened Anterior-Posterior axis)",zebrafish embryos; 25 nM,60.4%
same,"embryos affected (notochord defects, shortened Anterior-Posterior axis)",zebrafish embryos; 50 nM,76.7%
same,TD50,HepG2 human cell line; HepG2,5 µg/mL
same,TD50,"HepG2 human cell line; HepG2, REMA, triplicate, toxic dose inhibiting 50% of the population",5 µg/mL
same,TD99,"HepG2 human cell line; HepG2, REMA, triplicate, toxic dose inhibiting 99% of the population",25 µg/mL
same,selectivity index,HepG2 human cell line; HepG2 cytotoxicity relative to MIC,> 10 000
same,bacterial burden in the lungs lower than untreated control,"M. tuberculosis H37Rv [1]; 50 mg/kg per day, 28 days",0.6 logs
same,bacterial burden in the spleens lower than untreated control,"M. tuberculosis H37Rv [1]; 50 mg/kg per day, 28 days",1.7 logs
same,reduction of bacterial burden in the lungs and spleens,"M. tuberculosis H37Rv [1]; dose escalation study, 50 mg/kg, four weeks",1 log
same,clearance on incubation with microsomes (in words),[2],medium clearance values
same,MIC99,C. glutamicum ATCC 13032,0.063 µg/mL
same,microsomal CLint,in vitro [3],16 µL/min/mg
same,microsomal CLint,in vitro [4],12.2 µL/min/mg
same,MIC,"M. smegmatis GM22; GM22, read-out: MIC for GM22",0.05 µg/mL
same,MIC99,M. smegmatis GM22,0.031 µg/mL
same,effect on the infection in zebrafish embryos,M. marinum strain M [5]; 5 nM,no significant effect
same,bacterial burden in infected zebrafish embryos (fluorescence),M. marinum strain M [5]; 25 or 50 nM,almost no bacteria were present
same,MIC99,M. bolletii 1999-0888,> 100 µg/mL
same,Cmax,in vivo; [20],1920 ng/mL
same,half-life,in vivo; [20],1.67 h
same,k el,in vivo; [20],0.000116 s⁻¹
same,AUC,"in vivo; serum, female mice, single dose 25 mg/kg by gavage, non-compartmental",259829 µg·min/L
same,MIC99,M. bovis BCG BN2,>100 µg/mL
same,fold increased resistance conferred by the Cys387Ser mutation in DprE1,M. bovis BCG BN2,> 10 000 fold
same,MIC99,M. marinum Strain M [6],0.0007 µg/mL
same,MIC99,M. abscessus 2005-0524,> 100 µg/mL
same,MIC99,M. smegmatis mc^2155,0.001 µg/mL
same,MIC99,M. tuberculosis MDR_CHUV,0.002 µg/mL
same,MIC99,M. tuberculosis H37Rv [7]; M. tuberculosis H37Rv,0.001 µg/mL
same,MIC99,C. diphtheriae DSM 44123,0.06 µg/mL
same,MIC99,M. bovis BCG Pasteur,0.001 µg/mL
same,MIC99,M. avium ATCC 15769,> 100 µg/mL
same,clearance on incubation with microsomes (in words),[8],medium clearance values
same,concentration giving full inhibition of DprE1,M. tuberculosis DprE1,20 µM
same,MIC99,M. massiliense 2005-0484,> 100 µg/mL
same,"NfnB-mediated reduction, species found by LC-MS",[9],almost entirely converted to its hydroxylamino analogue
same,MIC99,M. vaccae ATCC 15483,> 100 µg/mL
NC(=O)N1c2ccccc2C=Cc2ccccc21 [Carbamazepine],microsomal CLint,in vitro [3],0.5 µL/min/mg
same,microsomal CLint,in vitro [4],1.1 µL/min/mg
"NNC(=O)c1ccncc1 [INH, isoniazid]",MIC,[10],> 20 µg/mL
same,MIC,[11],> 20 µg/mL
same,MIC,[12],> 20 µg/mL
same,MIC,[13],0.125 µg/mL
same,MIC,[14],> 20 µg/mL
same,MIC,[15],> 20 µg/mL
same,MIC,M. tuberculosis H37Rv [16],0.125 µg/mL
same,MIC,[17],> 20 µg/mL
same,MIC,[18],> 20 µg/mL
same,MIC,[19],> 20 µg/mL
O=c1nc(N2CCN(CCC3CCCCC3)CC2)sc2c([N+](=O)[O-])cc(C(F)(F)F)cc12 [PBTZ129],MIC,M. tuberculosis H37Rv [7]; [21],0.00019 µg/mL
same,MIC,M. tuberculosis H37Rv [7]; [22],0.00019 µg/mL
CCCCCCCN1CCN(c2nc(=O)c3cc(C(F)(F)F)cc([N+](=O)[O-])c3s2)CC1 [PBTZ134],"reduction of bacterial burden in the spleens, fold more than BTZ043","M. tuberculosis H37Rv [1]; 50 mg/kg per day, 28 days",10 fold
same,MIC,M. tuberculosis H37Rv [7]; [21],0.00019 µg/mL
same,MIC,M. tuberculosis H37Rv [7]; [22],0.00019 µg/mL
same,"NfnB-mediated reduction, species found by LC-MS",[9],as susceptible to NfnB-mediated reduction as BTZ043
O=c1nc(N2CCN(CCCCOc3ccccc3)CC2)sc2c([N+](=O)[O-])cc(C(F)(F)F)cc12 [PBTZ137],MIC,M. tuberculosis H37Rv [7]; [21],0.0015 µg/mL
same,MIC,M. tuberculosis H37Rv [7]; [22],0.0015 µg/mL
O=c1nc(N2CCN(CCCCc3ccccc3)CC2)sc2c([N+](=O)[O-])cc(C(F)(F)F)cc12 [PBTZ139],MIC,M. tuberculosis H37Rv [7]; [21],0.00037 µg/mL
same,MIC,M. tuberculosis H37Rv [7]; [22],0.00037 µg/mL
"CO[C@H]1/C=C/O[C@@]2(C)Oc3c(C)c(O)c4c(O)c(c(/C=N/N5CCN(C)CC5)c(O)c4c3C2=O)NC(=O)/C(C)=C\C=C\[C@H](C)[C@H](O)[C@@H](C)[C@@H](O)[C@@H](C)[C@H](OC(C)=O)[C@@H]1C [RIF, rifampicin]",MIC99,C. glutamicum ATCC 13032,0.004 µg/mL
same,MIC99,M. smegmatis GM22,1 µg/mL
same,MIC99,M. bolletii 1999-0888,50 µg/mL
same,MIC99,M. bovis BCG BN2,0.0008 µg/mL
same,MIC99,M. marinum Strain M [6],0.39 µg/mL
same,MIC99,M. abscessus 2005-0524,6.25 µg/mL
same,MIC99,M. smegmatis mc^2155,0.5 µg/mL
same,MIC99,M. tuberculosis MDR_CHUV,> 100 µg/mL
same,MIC99,M. tuberculosis H37Rv [7]; M. tuberculosis H37Rv,0.001 µg/mL
same,MIC99,C. diphtheriae DSM 44123,0.0008 µg/mL
same,MIC99,M. bovis BCG Pasteur,0.001 µg/mL
same,MIC99,M. avium ATCC 15769,25 µg/mL
same,MIC99,M. massiliense 2005-0484,25 µg/mL
same,MIC99,M. vaccae ATCC 15483,100 µg/mL
